Laboratory results from patent publication US11191820B2, “Method for inducing early T memory response with short peptides anti-tumor vaccine” (OSE IMMUNOTHERAPEUTICS, priority 2015, dated 2021).

Assays:
Type in all cases: in vivo, human
central memory T cells [1] = experiment: Cultured IFN-γ ELISPOT after 10-day in vitro stimulation of PBMC, phase 1/2 NSCLC trial of OSE-2101; set-up: key to net SFC of vaccine positive CTL responses: —, indicates SFC response did not meet criteria and vaccine response was negative; details: for No. Positive Responses / Mean SFC: 6 NSCLC patients
In short: (§1)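 Patient PBMC (pre-treatment, Week 9, Week 18, after s.c. dosing every 3 weeks) were stimulated 10 days with 10 μg/ml of each epitope plus rIL-2 10 U/ml on days 1, 4 and 7. Cells were then tested 20 h with irradiated autologous PBMC and 10 μg/ml vaccine or wild-type peptide. Net SFC per 5×10^4 cells, irrelevant HBV peptide subtracted.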

central memory T cells [2] = experiment: Cultured IFN-γ ELISPOT after 10-day in vitro stimulation of PBMC, phase 1/2 colon cancer trial of OSE-2101; set-up: key to net SFC of vaccine positive CTL responses: —, indicates SFC response did not meet criteria and vaccine response was negative; details: for Mean SFC: 10 colon patients
In short: as §1

central memory T cells [3] = experiment: Central memory T cell cultured ELISPOT, phase 2 trial in advanced NSCLC
In short: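 Patient PBMC were pre-stimulated for 10 days with 10 μg/ml peptide plus rIL2 (10 U/ml, days 1, 4, 7), then replated at 5×10^4/well with irradiated autologous PBMC and 10 μg/ml peptide, and SFC were counted. A response was positive if >5 SFC above, and > mean+2 SD of, the irrelevant HBV epitope, and twofold the pre-vaccination response plus 2 SD.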

SMPPPGTRV [p53.149M2 A]
No. Positive Responses (central memory T cells [1]; Week 9): 0 | No. Positive Responses (central memory T cells [1]; Week 18): 0 | net SFC of vaccine positive CTL responses (central memory T cells [1]; NSCLC patient 201, Week 9): — | net SFC of vaccine positive CTL responses (central memory T cells [1]; NSCLC patient 201, Week 18): — | net SFC of vaccine positive CTL responses (central memory T cells [1]; NSCLC patient 502, Week 9): — | net SFC of vaccine positive CTL responses (central memory T cells [1]; NSCLC patient 502, Week 18): — | net SFC of vaccine positive CTL responses (central memory T cells [1]; NSCLC patient 504, Week 9): — | net SFC of vaccine positive CTL responses (central memory T cells [1]; NSCLC patient 504, Week 18): — | net SFC of vaccine positive CTL responses (central memory T cells [1]; NSCLC patient 505, Week 9): — | net SFC of vaccine positive CTL responses (central memory T cells [1]; NSCLC patient 505, Week 18): — | net SFC of vaccine positive CTL responses (central memory T cells [1]; NSCLC patient 532, Week 9): — | net SFC of vaccine positive CTL responses (central memory T cells [1]; NSCLC patient 532, Week 18): — | net SFC of vaccine positive CTL responses (central memory T cells [1]; NSCLC patient 651, Week 9): — | net SFC of vaccine positive CTL responses (central memory T cells [1]; NSCLC patient 651, Week 18): — | Mean SFC (central memory T cells [2]; Week 9): 18.0 SFC per 50,000 cells | net SFC of vaccine positive CTL responses (central memory T cells [2]; colon patient 551, Week 9): — | net SFC of vaccine positive CTL responses (central memory T cells [2]; colon patient 551, Week 18): — | net SFC of vaccine positive CTL responses (central memory T cells [2]; colon patient 601, Week 9): — | net SFC of vaccine positive CTL responses (central memory T cells [2]; colon patient 601, Week 18): — | net SFC of vaccine positive CTL responses (central memory T cells [2]; colon patient 602, Week 9): — | net SFC of vaccine positive CTL responses (central memory T cells [2]; colon patient 602, Week 18): — | net SFC of vaccine positive CTL responses (central memory T cells [2]; colon patient 603, Week 9): — | net SFC of vaccine positive CTL responses (central memory T cells [2]; colon patient 603, Week 18): — | net SFC of vaccine positive CTL responses (central memory T cells [2]; colon patient 604, Week 9): — | net SFC of vaccine positive CTL responses (central memory T cells [2]; colon patient 604, Week 18): — | net SFC of vaccine positive CTL responses (central memory T cells [2]; colon patient 605, Week 9): — | net SFC of vaccine positive CTL responses (central memory T cells [2]; colon patient 605, Week 18): — | net SFC of vaccine positive CTL responses (central memory T cells [2]; colon patient 606, Week 9): — | net SFC of vaccine positive CTL responses (central memory T cells [2]; colon patient 606, Week 18): — | net SFC of vaccine positive CTL responses (central memory T cells [2]; colon patient 607, Week 9): — | net SFC of vaccine positive CTL responses (central memory T cells [2]; colon patient 607, Week 18): — | net SFC of vaccine positive CTL responses (central memory T cells [2]; colon patient 608, Week 9): 18.0 SFC per 50,000 cells | net SFC of vaccine positive CTL responses (central memory T cells [2]; colon patient 608, Week 18): — | net SFC of vaccine positive CTL responses (central memory T cells [2]; colon patient 609, Week 9): — | net SFC of vaccine positive CTL responses (central memory T cells [2]; colon patient 609, Week 18): — | % of patients with positive CTL/central memory T cell response (central memory T cells [3]; phase 2, month 9): 0% | patients with positive CTL/central memory T cell response / patients tested (central memory T cells [3]; phase 2, month 9): 0/7 | % of patients with positive CTL/central memory T cell response (central memory T cells [3]; phase 2, month 12): 0% | patients with positive CTL/central memory T cell response / patients tested (central memory T cells [3]; phase 2, month 12): 0/4 | % of patients with positive CTL/central memory T cell response (central memory T cells [3]; phase 2, week 9): 9% | patients with positive CTL/central memory T cell response / patients tested (central memory T cells [3]; phase 2, week 9): 1/11 | % of patients with positive CTL/central memory T cell response (central memory T cells [3]; phase 2, week 18): 0% | patients with positive CTL/central memory T cell response / patients tested (central memory T cells [3]; phase 2, week 18): 0/11 | % of patients with positive CTL/central memory T cell response (central memory T cells [3]; phase 2, week 30): 0% | patients with positive CTL/central memory T cell response / patients tested (central memory T cells [3]; phase 2, week 30): 0/6

YLSGADLNL [CEA.605D6 A]
Mean SFC (central memory T cells [1]; Week 9): 20.7 SFC per 50,000 cells | No. Positive Responses (central memory T cells [1]; Week 9): 1 | Mean SFC (central memory T cells [1]; Week 18): 137.5 SFC per 50,000 cells | No. Positive Responses (central memory T cells [1]; Week 18): 2 | net SFC of vaccine positive CTL responses (central memory T cells [1]; NSCLC patient 201, Week 9): — | net SFC of vaccine positive CTL responses (central memory T cells [1]; NSCLC patient 201, Week 18): — | net SFC of vaccine positive CTL responses (central memory T cells [1]; NSCLC patient 502, Week 9): — | net SFC of vaccine positive CTL responses (central memory T cells [1]; NSCLC patient 502, Week 18): — | net SFC of vaccine positive CTL responses (central memory T cells [1]; NSCLC patient 504, Week 9): 20.7 SFC per 50,000 cells | net SFC of vaccine positive CTL responses (central memory T cells [1]; NSCLC patient 504, Week 18): 214.3 SFC per 50,000 cells | net SFC of vaccine positive CTL responses (central memory T cells [1]; NSCLC patient 505, Week 9): — | net SFC of vaccine positive CTL responses (central memory T cells [1]; NSCLC patient 505, Week 18): 60.7 SFC per 50,000 cells | net SFC of vaccine positive CTL responses (central memory T cells [1]; NSCLC patient 532, Week 9): — | net SFC of vaccine positive CTL responses (central memory T cells [1]; NSCLC patient 532, Week 18): — | net SFC of vaccine positive CTL responses (central memory T cells [1]; NSCLC patient 651, Week 9): — | net SFC of vaccine positive CTL responses (central memory T cells [1]; NSCLC patient 651, Week 18): — | Mean SFC (central memory T cells [2]; Week 9): 84.2 SFC per 50,000 cells | Mean SFC (central memory T cells [2]; Week 18): 283.3 SFC per 50,000 cells | net SFC of vaccine positive CTL responses (central memory T cells [2]; colon patient 551, Week 9): — | net SFC of vaccine positive CTL responses (central memory T cells [2]; colon patient 551, Week 18): — | net SFC of vaccine positive CTL responses (central memory T cells [2]; colon patient 601, Week 9): 88.3 SFC per 50,000 cells | net SFC of vaccine positive CTL responses (central memory T cells [2]; colon patient 601, Week 18): — | net SFC of vaccine positive CTL responses (central memory T cells [2]; colon patient 602, Week 9): — | net SFC of vaccine positive CTL responses (central memory T cells [2]; colon patient 602, Week 18): — | net SFC of vaccine positive CTL responses (central memory T cells [2]; colon patient 603, Week 9): 114.7 SFC per 50,000 cells | net SFC of vaccine positive CTL responses (central memory T cells [2]; colon patient 603, Week 18): — | net SFC of vaccine positive CTL responses (central memory T cells [2]; colon patient 604, Week 9): 70.0 SFC per 50,000 cells | net SFC of vaccine positive CTL responses (central memory T cells [2]; colon patient 604, Week 18): 413.3 SFC per 50,000 cells | net SFC of vaccine positive CTL responses (central memory T cells [2]; colon patient 605, Week 9): — | net SFC of vaccine positive CTL responses (central memory T cells [2]; colon patient 605, Week 18): — | net SFC of vaccine positive CTL responses (central memory T cells [2]; colon patient 606, Week 9): — | net SFC of vaccine positive CTL responses (central memory T cells [2]; colon patient 606, Week 18): — | net SFC of vaccine positive CTL responses (central memory T cells [2]; colon patient 607, Week 9): 72.7 SFC per 50,000 cells | net SFC of vaccine positive CTL responses (central memory T cells [2]; colon patient 607, Week 18): 414.7 SFC per 50,000 cells | net SFC of vaccine positive CTL responses (central memory T cells [2]; colon patient 608, Week 9): — | net SFC of vaccine positive CTL responses (central memory T cells [2]; colon patient 608, Week 18): — | net SFC of vaccine positive CTL responses (central memory T cells [2]; colon patient 609, Week 9): 75.3 SFC per 50,000 cells | net SFC of vaccine positive CTL responses (central memory T cells [2]; colon patient 609, Week 18): 22.0 SFC per 50,000 cells | % of patients with positive CTL/central memory T cell response (central memory T cells [3]; phase 2, month 9): 14% | patients with positive CTL/central memory T cell response / patients tested (central memory T cells [3]; phase 2, month 9): 1/7 | % of patients with positive CTL/central memory T cell response (central memory T cells [3]; phase 2, month 12): 25% | patients with positive CTL/central memory T cell response / patients tested (central memory T cells [3]; phase 2, month 12): 1/4 | % of patients with positive CTL/central memory T cell response (central memory T cells [3]; phase 2, week 9): 27% | patients with positive CTL/central memory T cell response / patients tested (central memory T cells [3]; phase 2, week 9): 9/33 | % of patients with positive CTL/central memory T cell response (central memory T cells [3]; phase 2, week 18): 31% | patients with positive CTL/central memory T cell response / patients tested (central memory T cells [3]; phase 2, week 18): 10/32 | % of patients with positive CTL/central memory T cell response (central memory T cells [3]; phase 2, week 30): 35% | patients with positive CTL/central memory T cell response / patients tested (central memory T cells [3]; phase 2, week 30): 8/23
